US20240270762A1, “PENICILLIN-BINDING PROTEIN INHIBITORS” (priority 2021, published 2024)
≈ marks a conversion by molar mass, not a printed value.

Columns and labels:
P. aeruginosa ATCC 35151 = test: microbe, parasite or virus in culture; type: cell-based; settings: Pseudomonas aeruginosa, ATCC35151, read-out: MIC P. aeruginosa ATCC 35151
N. gonorrhoeae WHO Z = test: Liquid broth MIC in Fastidious broth; settings: Neisseria gonorrhoeae, read-out: Minimum Inhibitory Concentration (MIC), N. gonorrhoeae WHO Z
[1] = target: T1, PBP3 from Escherichia coli (K-12) (Escherichia coli, UniProt P0AD68); test: Bocillin-FL fluorescence polarization competition binding, E. coli PBP3
T1 construct: made in house
T1 sequence (P0AD68 1-577): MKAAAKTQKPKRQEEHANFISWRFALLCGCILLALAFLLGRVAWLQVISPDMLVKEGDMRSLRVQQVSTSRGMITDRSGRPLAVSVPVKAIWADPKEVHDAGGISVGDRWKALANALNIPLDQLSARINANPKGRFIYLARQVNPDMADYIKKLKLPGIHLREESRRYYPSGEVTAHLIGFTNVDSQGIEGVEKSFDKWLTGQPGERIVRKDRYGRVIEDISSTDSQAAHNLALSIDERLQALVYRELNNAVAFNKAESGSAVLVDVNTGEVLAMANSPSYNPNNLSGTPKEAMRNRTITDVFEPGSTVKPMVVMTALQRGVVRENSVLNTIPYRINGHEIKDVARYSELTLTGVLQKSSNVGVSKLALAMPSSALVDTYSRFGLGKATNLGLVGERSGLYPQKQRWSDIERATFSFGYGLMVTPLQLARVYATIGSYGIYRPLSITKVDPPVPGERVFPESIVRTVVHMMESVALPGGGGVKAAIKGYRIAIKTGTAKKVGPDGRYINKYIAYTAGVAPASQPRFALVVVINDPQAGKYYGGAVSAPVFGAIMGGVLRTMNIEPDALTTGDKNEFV
Summary of the method: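 Purified PBPs pre-incubated with inhibitor (E. coli PBP3 1.5 μM, 30 min; P. aeruginosa PBP3 0.75 μM, A. baumannii PBP1a 1 μM and PBP3 0.2 μM, 15 min), then Bocillin-FL 0.1 μM (0.05 μM for PBP1a) added; FP read up to 60 min. EC50 = concentration halving bound Bocillin-FL.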

E. coli ATCC 25922 = test: microbe, parasite or virus in culture; type: cell-based; settings: Escherichia coli, ATCC25922, read-out: MIC E. coli 25922
N. gonorrhoeae CDC-0197 = test: Liquid broth MIC in Fastidious broth; settings: Neisseria gonorrhoeae, CDC0197, read-out: Minimum Inhibitory Concentration (MIC), N. gonorrhoeae CDC-0197
A. baumannii ATCC 19606 = test: microbe, parasite or virus in culture; type: cell-based; settings: Acinetobacter baumannii, ATCC19606, read-out: MIC, A. baumannii ATCC 19606
N. gonorrhoeae WHO L = test: Liquid broth MIC in Fastidious broth; settings: Neisseria gonorrhoeae, read-out: Minimum Inhibitory Concentration (MIC), N. gonorrhoeae WHO L
N. gonorrhoeae MS11 = test: Liquid broth MIC in Fastidious broth; settings: Neisseria gonorrhoeae, MS11, read-out: Minimum Inhibitory Concentration (MIC), N. gonorrhoeae MS11
Protocol: Additional antibacterial testing of the series was performed in 8 reference strains of N. gonorrhoeae (ATCC 49226, FA1090, MS 11, WHO G, WHO L, WHO M, WHO K, WHO X, WHO Z, WHO Q, CDC-0197). ATCC 49226, FA1090, MS11, WHO G, WHO L, and WHO M produce wild type or wild-type like PBP2. WHO K, WHO X, WHO Z, WHO Q, and CDC-0197 produce mosaic PBP2. Liquid broth-based assays were used for antibacterial testing of PBP inhibitors in Neisseria gonorrhoeae. Briefly, cryo-preserved bacterial cultures of clinical strains were streaked for isolation on Chocolate Agar (72 g/L (2×) GC Agar Base (BD #228950) and 2% (2×) Hemoglobin was autoclaved at 121° C. for 20 minutes to sterilize. Once cooled to ˜50° C. the 2×GC Agar Base and 2× Hemoglobin solutions are combined and 1% IsoVitaleX Enrichment (BD #211876) was added to the solution). Strains were incubated at 36° C. and 5% CO2 to allow growth of colonies, 24 hours before inoculum preparation. 2-fold serial dilutions of test compounds were conducted in a 96 well plate with a final volume of 75 μL per well at 2-fold the final desired concentration in Fastidious broth (Remel #R07664). For preparation of assay inoculum, a direct suspension was prepared by aseptically swabbing 10-15 colonies from agar plates into culture tubes containing 2 mL of fresh sterile saline. After the dilution plates were set up, direct suspensions were then diluted in a cuvette containing sterile saline and the optical density was measured at 600 nm. Inocula were diluted such that 75 μL of this culture in Fastidious broth results in a starting bacterial concentration of 5×10^5 CFU/mL when added to the dilution plates. The plates were incubated for ˜24 hours at 36° C. and 5% CO2.

E. coli D22 = test: microbe, parasite or virus in culture; type: cell-based; settings: Escherichia coli, D22, read-out: MIC E. coli D22
K. pneumoniae SI-117 = test: microbe, parasite or virus in culture; type: cell-based; settings: Klebsiella pneumoniae, SI117, read-out: MIC K. pneumoniae SI-117
N. gonorrhoeae WHO Q = test: Liquid broth MIC in Fastidious broth; settings: Neisseria gonorrhoeae, read-out: Minimum Inhibitory Concentration (MIC), N. gonorrhoeae WHO Q
Protocol: (§1) Liquid broth-based assays were used for antibacterial testing of PBP inhibitors in Neisseria gonorrhoeae. Briefly, cryo-preserved bacterial cultures of clinical strains were streaked for isolation on Chocolate Agar (72 g/L (2×) GC Agar Base (BD #228950) and 2% (2×) Hemoglobin was autoclaved at 121° C. for 20 minutes to sterilize. Once cooled to ˜50° C. the 2×GC Agar Base and 2× Hemoglobin solutions are combined and 1% IsoVitaleX Enrichment (BD #211876) was added to the solution). Strains were incubated at 36° C. and 5% CO2 to allow growth of colonies, 24 hours before inoculum preparation. 2-fold serial dilutions of test compounds were conducted in a 96 well plate with a final volume of 75 μL per well at 2-fold the final desired concentration in Fastidious broth (Remel #R07664). For preparation of assay inoculum, a direct suspension was prepared by aseptically swabbing 10-15 colonies from agar plates into culture tubes containing 2 mL of fresh sterile saline. After the dilution plates were set up, direct suspensions were then diluted in a cuvette containing sterile saline and the optical density was measured at 600 nm. Inocula were diluted such that 75 μL of this culture in Fastidious broth results in a starting bacterial concentration of 5×10^5 CFU/mL when added to the dilution plates. The plates were incubated for ˜24 hours at 36° C. and 5% CO2.

N. gonorrhoeae WHO M = test: Liquid broth MIC in Fastidious broth; settings: Neisseria gonorrhoeae, read-out: Minimum Inhibitory Concentration (MIC), N. gonorrhoeae WHO M
Protocol: as §1

N. gonorrhoeae WHO K = test: Liquid broth MIC in Fastidious broth; settings: Neisseria gonorrhoeae, read-out: Minimum Inhibitory Concentration (MIC), N. gonorrhoeae WHO K
E. coli AG100A = test: Broth microdilution MIC in CAMHB; type: cell-based; settings: Escherichia coli, read-out: MIC E. coli AG100A
[2] = system: N. gonorrhoeae ATCC 49226; test: Liquid broth MIC in Fastidious broth; settings: Neisseria gonorrhoeae, ATCC49226, read-out: Minimum Inhibitory Concentration (MIC), N. gonorrhoeae ATCC 49226
K. pneumoniae UMM = test: microbe, parasite or virus in culture; type: cell-based; settings: Klebsiella pneumoniae, read-out: MIC K. pneumoniae UMM

Structure (SMILES)	MIC (P. aeruginosa ATCC 35151)	MIC (N. gonorrhoeae WHO Z)	EC50 [1]	MIC (E. coli ATCC 25922)	MIC (N. gonorrhoeae CDC-0197)	MIC (A. baumannii ATCC 19606)	MIC (N. gonorrhoeae WHO L)	MIC (N. gonorrhoeae MS11)	MIC (E. coli D22)	MIC (K. pneumoniae SI-117)	MIC (N. gonorrhoeae WHO Q)	MIC (N. gonorrhoeae WHO M)	MIC (N. gonorrhoeae WHO K)	MIC (E. coli AG100A)	MIC [2]	MIC (K. pneumoniae UMM)
CS(=O)(=O)N1CCN(C(=O)NC(C(=O)N[C@H]2Cc3cccc(C(=O)O)c3OB2O)c2ccc(P(=O)(O)O)c(O)c2)C1=O (stereo partly drawn) [Example 17, (3R)-2-hydroxy-3-(2-(3-hydroxy-4-phosphonophenyl)-2-(3-(methylsulfonyl)-2-oxoimidazolidine-1-carboxamido)acetamido)-3,4-dihydro-2H-benzo[e][1,2]oxaborinine-8-carboxylic acid]	< 1 µg/mL	< 1 µg/mL	< 10 µM	32 to 64 µg/mL (≈ 51.1 to 102 µM)	< 1 µg/mL	2 to 4 µg/mL (≈ 3.19 to 6.39 µM)	< 1 µg/mL	< 1 µg/mL	2 to 4 µg/mL (≈ 3.19 to 6.39 µM)	> 128 µg/mL	< 1 µg/mL	< 1 µg/mL	< 1 µg/mL	8 to 16 µg/mL (≈ 12.8 to 25.5 µM)	< 1 µg/mL	32 to 64 µg/mL (≈ 51.1 to 102 µM)
Nc1ncc(C(=O)N[C@@H](C(=O)N[C@H]2Cc3cccc(C(=O)O)c3OB2O)c2ccc(P(=O)(O)O)cc2)s1 (racemic) [Example 50, (R)-3-((S)-2-(2-aminothiazole-5-carboxamido)-2-(4-phosphonophenyl)acetamido)-2-hydroxy-3,4-dihydro-2H-benzo[e][1,2]oxaborinine-8-carboxylic acid and (R)-3-((R)-2-(2-aminothiazole-5-carboxamido)-2-(4-phosphonophenyl)acetamido)-2-hydroxy-3,4-dihydro-2H-benzo[e][1,2]oxaborinine-8-carboxylic acid]	2 to 4 µg/mL (≈ 3.66 to 7.32 µM)	16 to 32 µg/mL (≈ 29.3 to 58.6 µM)	50 to 250 µM	> 128 µg/mL	16 to 32 µg/mL (≈ 29.3 to 58.6 µM)	> 128 µg/mL	16 to 32 µg/mL (≈ 29.3 to 58.6 µM)	4 to 8 µg/mL (≈ 7.32 to 14.6 µM)	32 to 64 µg/mL (≈ 58.6 to 117 µM)	> 128 µg/mL	16 to 32 µg/mL (≈ 29.3 to 58.6 µM)	1 to 2 µg/mL (≈ 1.83 to 3.66 µM)	16 to 32 µg/mL (≈ 29.3 to 58.6 µM)	> 128 µg/mL	4 to 8 µg/mL (≈ 7.32 to 14.6 µM)	> 128 µg/mL
O=C(N[C@H](C(=O)N[C@H]1Cc2cccc(C(=O)O)c2OB1O)c1ccc(P(=O)(O)O)cc1)c1ccc(C(F)(F)F)cn1 (single isomer, unassigned) [Example 192]	8 to 16 µg/mL (≈ 13.5 to 27 µM)	1 to 2 µg/mL (≈ 1.69 to 3.37 µM)	10 to 50 µM	> 128 µg/mL	1 to 2 µg/mL (≈ 1.69 to 3.37 µM)	> 128 µg/mL	4 to 8 µg/mL (≈ 6.74 to 13.5 µM)	1 to 2 µg/mL (≈ 1.69 to 3.37 µM)	8 to 16 µg/mL (≈ 13.5 to 27 µM)	> 128 µg/mL	1 to 2 µg/mL (≈ 1.69 to 3.37 µM)	< 1 µg/mL	4 to 8 µg/mL (≈ 6.74 to 13.5 µM)	32 to 64 µg/mL (≈ 53.9 to 108 µM)	1 to 2 µg/mL (≈ 1.69 to 3.37 µM)	> 128 µg/mL
CCC(=O)NC(C(=O)N[C@H]1Cc2cccc(C(=O)O)c2OB1O)c1ccc(P(=O)(O)O)cc1 (stereo partly drawn) [Example 27, (3R)-2-hydroxy-3-(2-(4-phosphonophenyl)-2-propionamidoacetamido)-3,4-dihydro-2H-benzo[e][1,2]oxaborinine-8-carboxylic acid]	8 to 16 µg/mL (≈ 16.8 to 33.6 µM)	16 to 32 µg/mL (≈ 33.6 to 67.2 µM)	50 to 250 µM	> 128 µg/mL	16 to 32 µg/mL (≈ 33.6 to 67.2 µM)	> 128 µg/mL	16 to 32 µg/mL (≈ 33.6 to 67.2 µM)	16 to 32 µg/mL (≈ 33.6 to 67.2 µM)	32 to 64 µg/mL (≈ 67.2 to 134 µM)	> 128 µg/mL	16 to 32 µg/mL (≈ 33.6 to 67.2 µM)	4 to 8 µg/mL (≈ 8.4 to 16.8 µM)	16 to 32 µg/mL (≈ 33.6 to 67.2 µM)	> 128 µg/mL	16 to 32 µg/mL (≈ 33.6 to 67.2 µM)	> 128 µg/mL
O=C(O)c1cccc2c1OB(O)[C@@H](NC(=O)[C@@H](NC(=O)N1CCCCC1=O)c1ccc(P(=O)(O)O)cc1)C2 [Example 36, (R)-2-hydroxy-3-((S)-2-(2-oxopiperidine-1-carboxamido)-2-(4-phosphonophenyl)acetamido)-3,4-dihydro-2H-benzo[39e][1,2]oxaborinine-8-carboxylic acid]	8 to 16 µg/mL (≈ 14.7 to 29.3 µM)	16 to 32 µg/mL (≈ 29.3 to 58.7 µM)	50 to 250 µM	> 128 µg/mL	16 to 32 µg/mL (≈ 29.3 to 58.7 µM)	> 128 µg/mL	16 to 32 µg/mL (≈ 29.3 to 58.7 µM)	16 to 32 µg/mL (≈ 29.3 to 58.7 µM)	32 to 64 µg/mL (≈ 58.7 to 117 µM)	> 128 µg/mL	16 to 32 µg/mL (≈ 29.3 to 58.7 µM)	1 to 2 µg/mL (≈ 1.83 to 3.67 µM)	16 to 32 µg/mL (≈ 29.3 to 58.7 µM)	> 128 µg/mL	16 to 32 µg/mL (≈ 29.3 to 58.7 µM)	> 128 µg/mL
O=C(O)c1cccc2c1OB(O)[C@@H](NC(=O)[C@H](NC(=O)N1CCNC1=O)c1ccc(P(=O)(O)O)cc1)C2 [Example 40, (R)-2-hydroxy-3-((R)-2-(2-oxoimidazolidine-1-carboxamido)-2-(4-phosphonophenyl)acetamido)-3,4-dihydro-2H-benzo[e][1,2]oxaborinine-8-carboxylic acid]	< 1 µg/mL	< 1 µg/mL	< 10 µM	32 to 64 µg/mL (≈ 60.1 to 120 µM)	< 1 µg/mL	32 to 64 µg/mL (≈ 60.1 to 120 µM)	1 to 2 µg/mL (≈ 1.88 to 3.76 µM)	< 1 µg/mL	2 to 4 µg/mL (≈ 3.76 to 7.52 µM)	> 128 µg/mL	< 1 µg/mL	< 1 µg/mL	1 to 2 µg/mL (≈ 1.88 to 3.76 µM)	8 to 16 µg/mL (≈ 15 to 30.1 µM)	< 1 µg/mL	32 to 64 µg/mL (≈ 60.1 to 120 µM)
CC(=O)N1CCC[C@H]1C(=O)NC(C(=O)N[C@H]1Cc2cccc(C(=O)O)c2OB1O)c1ccc(P(=O)(O)O)cc1 (stereo partly drawn) [Example 65, (3R)-3-(2-((S)-1-acetylpyrrolidine-2-carboxamido)-2-(4-phosphonophenyl)acetamido)-2-hydroxy-3,4-dihydro-2H-benzo[e][1,2]oxaborinine-8-carboxylic acid]	8 to 16 µg/mL (≈ 14.3 to 28.6 µM)	16 to 32 µg/mL (≈ 28.6 to 57.2 µM)	> 250 µM	> 128 µg/mL	16 to 32 µg/mL (≈ 28.6 to 57.2 µM)	> 128 µg/mL	16 to 32 µg/mL (≈ 28.6 to 57.2 µM)	16 to 32 µg/mL (≈ 28.6 to 57.2 µM)	> 128 µg/mL	> 128 µg/mL	16 to 32 µg/mL (≈ 28.6 to 57.2 µM)	4 to 8 µg/mL (≈ 7.15 to 14.3 µM)	16 to 32 µg/mL (≈ 28.6 to 57.2 µM)	> 128 µg/mL	16 to 32 µg/mL (≈ 28.6 to 57.2 µM)	> 128 µg/mL
CS(=O)(=O)N1CCC[C@@H]1C(=O)N[C@H](C(=O)N[C@H]1Cc2cccc(C(=O)O)c2OB1O)c1ccc(P(=O)(O)O)cc1 [Example 34, (R)-2-hydroxy-3-((S)-2-((R)-1-(methylsulfonyl)pyrrolidine-2-carboxamido)-2-(4-phosphonophenyl)acetamido)-3,4-dihydro-2H-benzo[e][1,2]oxaborinine-8-carboxylic acid]	8 to 16 µg/mL (≈ 13.4 to 26.9 µM)	16 to 32 µg/mL (≈ 26.9 to 53.8 µM)	50 to 250 µM	> 128 µg/mL	16 to 32 µg/mL (≈ 26.9 to 53.8 µM)	> 128 µg/mL	16 to 32 µg/mL (≈ 26.9 to 53.8 µM)	16 to 32 µg/mL (≈ 26.9 to 53.8 µM)	32 to 64 µg/mL (≈ 53.8 to 108 µM)	> 128 µg/mL	16 to 32 µg/mL (≈ 26.9 to 53.8 µM)	4 to 8 µg/mL (≈ 6.72 to 13.4 µM)	16 to 32 µg/mL (≈ 26.9 to 53.8 µM)	> 128 µg/mL	16 to 32 µg/mL (≈ 26.9 to 53.8 µM)	> 128 µg/mL
CCN1CCN(C(=O)NC(C(=O)N[C@H]2Cc3cccc(C(=O)O)c3OB2O)c2ccc(P(=O)(O)O)cc2)C1=O (stereo partly drawn) [Example 42, (3R)-3-(2-(3-ethyl-2-oxoimidazolidine-1-carboxamido)-2-(4-phosphonophenyl)acetamido)-2-hydroxy-3,4-dihydro-2H-benzo[e][1,2]oxaborinine-8-carboxylic acid]	< 1 µg/mL	< 1 µg/mL	< 10 µM	32 to 64 µg/mL (≈ 57.1 to 114 µM)	< 1 µg/mL	32 to 64 µg/mL (≈ 57.1 to 114 µM)	1 to 2 µg/mL (≈ 1.78 to 3.57 µM)	< 1 µg/mL	2 to 4 µg/mL (≈ 3.57 to 7.14 µM)	> 128 µg/mL	< 1 µg/mL	< 1 µg/mL	1 to 2 µg/mL (≈ 1.78 to 3.57 µM)	8 to 16 µg/mL (≈ 14.3 to 28.6 µM)	< 1 µg/mL	32 to 64 µg/mL (≈ 57.1 to 114 µM)
O=C(O)c1cccc2c1OB(O)[C@@H](NC(=O)C(NC(=O)c1ccc[nH]c1=O)c1ccc(P(=O)(O)O)cc1)C2 (stereo partly drawn) [Example 174, (3R)-2-hydroxy-3-(2-(2-oxo-1,2-dihydropyridine-3-carboxamido)-2-(4-phosphonophenyl)acetamido)-3,4-dihydro-2H-benzo[e][1,2]oxaborinine-8-carboxylic acid]	2 to 4 µg/mL (≈ 3.7 to 7.39 µM)	16 to 32 µg/mL (≈ 29.6 to 59.1 µM)	50 to 250 µM	> 128 µg/mL	16 to 32 µg/mL (≈ 29.6 to 59.1 µM)	> 128 µg/mL	16 to 32 µg/mL (≈ 29.6 to 59.1 µM)	4 to 8 µg/mL (≈ 7.39 to 14.8 µM)	32 to 64 µg/mL (≈ 59.1 to 118 µM)	> 128 µg/mL	16 to 32 µg/mL (≈ 29.6 to 59.1 µM)	1 to 2 µg/mL (≈ 1.85 to 3.7 µM)	16 to 32 µg/mL (≈ 29.6 to 59.1 µM)	> 128 µg/mL	4 to 8 µg/mL (≈ 7.39 to 14.8 µM)	> 128 µg/mL
